Type in all cases: biochemical
One assay has as its target T1, TXK (Homo sapiens, UniProt P42681).
T1 sequence (P42681 1-527): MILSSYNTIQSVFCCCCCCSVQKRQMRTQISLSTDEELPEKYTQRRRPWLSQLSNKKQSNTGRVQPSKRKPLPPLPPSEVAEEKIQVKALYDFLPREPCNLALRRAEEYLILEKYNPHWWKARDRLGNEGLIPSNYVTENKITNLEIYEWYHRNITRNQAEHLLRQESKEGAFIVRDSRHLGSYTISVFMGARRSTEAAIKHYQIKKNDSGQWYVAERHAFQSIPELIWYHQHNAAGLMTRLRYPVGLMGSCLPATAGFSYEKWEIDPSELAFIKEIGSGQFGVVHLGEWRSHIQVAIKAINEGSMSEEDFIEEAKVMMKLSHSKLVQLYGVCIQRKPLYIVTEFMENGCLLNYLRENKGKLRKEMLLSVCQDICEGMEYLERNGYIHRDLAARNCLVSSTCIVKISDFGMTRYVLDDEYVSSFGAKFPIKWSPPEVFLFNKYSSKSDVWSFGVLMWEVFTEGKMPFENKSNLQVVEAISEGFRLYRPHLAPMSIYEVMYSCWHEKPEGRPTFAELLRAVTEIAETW
Kind of assay: TXK IC50 kinase inhibition assay.

The next assay deals with BTK (Homo sapiens, UniProt Q06187). Kind of assay: BTK IC50 kinase inhibition assay.
The next assay deals with T2, JAK3 (Homo sapiens, UniProt P52333).
T2 sequence (P52333 1-1124): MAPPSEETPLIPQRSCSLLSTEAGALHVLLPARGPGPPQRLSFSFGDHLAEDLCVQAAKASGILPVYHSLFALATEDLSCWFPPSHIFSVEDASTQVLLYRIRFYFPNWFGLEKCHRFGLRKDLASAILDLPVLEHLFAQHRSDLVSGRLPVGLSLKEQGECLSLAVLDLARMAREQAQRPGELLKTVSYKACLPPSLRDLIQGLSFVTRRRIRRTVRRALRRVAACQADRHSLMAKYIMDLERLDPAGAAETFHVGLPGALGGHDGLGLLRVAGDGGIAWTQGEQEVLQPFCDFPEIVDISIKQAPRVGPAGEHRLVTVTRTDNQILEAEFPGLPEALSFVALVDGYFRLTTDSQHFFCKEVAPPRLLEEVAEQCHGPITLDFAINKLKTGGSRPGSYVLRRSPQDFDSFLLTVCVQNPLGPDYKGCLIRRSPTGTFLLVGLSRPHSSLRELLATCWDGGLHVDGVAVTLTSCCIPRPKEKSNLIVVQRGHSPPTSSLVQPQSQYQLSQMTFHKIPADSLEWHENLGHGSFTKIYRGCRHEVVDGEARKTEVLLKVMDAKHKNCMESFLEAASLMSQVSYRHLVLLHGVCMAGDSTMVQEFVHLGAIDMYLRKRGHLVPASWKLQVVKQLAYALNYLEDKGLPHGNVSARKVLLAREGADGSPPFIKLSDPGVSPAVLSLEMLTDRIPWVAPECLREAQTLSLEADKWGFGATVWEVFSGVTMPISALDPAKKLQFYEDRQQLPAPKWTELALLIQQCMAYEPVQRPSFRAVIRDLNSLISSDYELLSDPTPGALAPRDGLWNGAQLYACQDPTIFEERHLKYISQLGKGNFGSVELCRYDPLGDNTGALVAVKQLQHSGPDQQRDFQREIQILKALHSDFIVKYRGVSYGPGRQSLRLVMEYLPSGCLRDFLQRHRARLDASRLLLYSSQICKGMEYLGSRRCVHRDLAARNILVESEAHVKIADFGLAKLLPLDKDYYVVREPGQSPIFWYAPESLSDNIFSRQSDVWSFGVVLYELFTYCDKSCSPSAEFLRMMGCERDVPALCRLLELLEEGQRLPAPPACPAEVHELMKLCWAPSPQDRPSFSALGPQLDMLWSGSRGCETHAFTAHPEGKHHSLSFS
Nature of the assay: JAK3 IC50 kinase inhibition assay.

Another assay has as its target T3, ITK (Homo sapiens, UniProt Q08881).
T3 sequence (Q08881 1-620): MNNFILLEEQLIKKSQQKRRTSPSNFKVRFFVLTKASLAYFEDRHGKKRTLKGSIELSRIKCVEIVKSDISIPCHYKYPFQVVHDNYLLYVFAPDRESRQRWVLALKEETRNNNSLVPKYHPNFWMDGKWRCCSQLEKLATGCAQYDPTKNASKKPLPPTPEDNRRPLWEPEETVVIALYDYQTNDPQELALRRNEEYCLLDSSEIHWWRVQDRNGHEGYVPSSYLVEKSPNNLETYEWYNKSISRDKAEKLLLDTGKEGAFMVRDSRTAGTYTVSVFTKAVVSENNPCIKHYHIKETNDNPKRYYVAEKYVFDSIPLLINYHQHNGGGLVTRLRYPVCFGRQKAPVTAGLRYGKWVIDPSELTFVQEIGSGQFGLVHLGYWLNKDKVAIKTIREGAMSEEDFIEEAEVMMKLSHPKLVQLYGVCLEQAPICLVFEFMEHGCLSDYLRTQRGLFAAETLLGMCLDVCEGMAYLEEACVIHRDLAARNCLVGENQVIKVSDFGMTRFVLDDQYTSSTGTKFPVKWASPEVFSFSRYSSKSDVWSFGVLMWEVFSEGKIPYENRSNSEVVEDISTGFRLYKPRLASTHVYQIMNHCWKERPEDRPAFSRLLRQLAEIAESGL
Kind of assay: ITK IC50 kinase inhibition assay.

Each structure is given as a SMILES string. pIC50: −log10 of the molar value. Where only a bound is given, the exact number is not on record here.

As usually defined, the pIC50 is the negative decadic logarithm of the IC50, by convention in mol/L. A lower pIC50 goes with a high IC50.

Chain of BTK (Q06187 whole entry): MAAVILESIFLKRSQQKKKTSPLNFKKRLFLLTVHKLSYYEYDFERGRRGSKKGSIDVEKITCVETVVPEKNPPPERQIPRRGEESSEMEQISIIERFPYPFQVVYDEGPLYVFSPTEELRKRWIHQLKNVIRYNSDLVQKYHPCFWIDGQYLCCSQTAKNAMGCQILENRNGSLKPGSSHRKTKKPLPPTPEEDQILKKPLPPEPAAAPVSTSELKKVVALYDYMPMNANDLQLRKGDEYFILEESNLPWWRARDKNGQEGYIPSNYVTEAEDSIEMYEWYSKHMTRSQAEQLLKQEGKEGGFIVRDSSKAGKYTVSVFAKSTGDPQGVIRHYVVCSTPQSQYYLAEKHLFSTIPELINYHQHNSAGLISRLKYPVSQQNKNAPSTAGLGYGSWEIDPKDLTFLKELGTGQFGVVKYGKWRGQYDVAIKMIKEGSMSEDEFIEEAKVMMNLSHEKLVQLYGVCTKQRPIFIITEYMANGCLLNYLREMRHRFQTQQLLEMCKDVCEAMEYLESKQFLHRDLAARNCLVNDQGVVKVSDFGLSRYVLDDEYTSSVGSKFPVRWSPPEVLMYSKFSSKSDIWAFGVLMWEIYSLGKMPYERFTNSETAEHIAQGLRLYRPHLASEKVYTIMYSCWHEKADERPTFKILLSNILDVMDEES

For `C=CC(=O)N1CCC[C@@H](n2nc(-c3ccc(Oc4c(F)cccc4F)cc3)c3cncnc32)C1` [Compound A50, (R)-1-(3-(3-(4-(2,6-difluorophenoxy)phenyl)-1H-pyrazolo[3,4-d]pyrimidin-1-yl)piperidin-1-yl)prop-2-en-1-one], the negative logarithm of the IC50 (pIC50) against TXK is 6.30 to 7.00; against BTK, more than 7.00; against JAK3, less than 6.30; at ITK, less than 6.30.

Consider `C=CC(=O)N1CC[C@H]1Cn1nc(-c2ccc(Oc3ccccc3)cc2)c2cncnc21` [Compound A51, (S)-1-(2-((3-(4-phenoxyphenyl)-1H-pyrazolo[3,4-d]pyrimidin-1-yl)methyl)azetidin-1-yl)prop-2-en-1-one], for which the pIC50 against TXK was more than 7.00; at BTK it was more than 7.00; at JAK3 it was less than 6.30; against ITK it was less than 6.30.

With `C=CC(=O)N1CCC[C@@]1(C)Cn1nc(-c2ccc(Oc3ccccc3)cc2F)c2cncnc21` [Compound A52, (S)-1-(2-((3-(2-fluoro-4-phenoxyphenyl)-1H-pyrazolo[3,4-d]pyrimidin-1-yl)methyl)-2-methylpyrrolidin-1-yl)prop-2-en-1-one], the pIC50 on TXK is more than 7.00; against BTK it was more than 7.00; at JAK3 it was less than 6.30; against ITK, less than 6.30.

As to `C=CC(=O)N1CC[C@@H]1Cn1nc(-c2ccc(Oc3ccccc3)cc2)c2cncnc21` [Compound A53, (R)-1-(2-((3-(4-phenoxyphenyl)-1H-pyrazolo[3,4-d]pyrimidin-1-yl)methyl)azetidin-1-yl)prop-2-en-1-one], the negative-log IC50 (pIC50) on TXK is more than 7.00; against BTK it was more than 7.00; on JAK3 it was less than 6.30; against ITK, less than 6.30.

Turning to `C=CC(=O)N1CCC2(CC1)CC(n1nc(-c3ccc(Oc4ccccc4)cc3)c3cncnc31)C2` [Compound A54, 1-(2-(3-(4-phenoxyphenyl)-1H-pyrazolo[3,4-d]pyrimidin-1-yl)-7-azaspiro[3.5]nonan-7-yl)prop-2-en-1-one], the negative logarithm of the IC50 (pIC50) against TXK, against BTK, at JAK3 and at ITK was less than 6.30 each time.

Regarding `C=CC(=O)N[C@H]1C[C@H](n2nc(-c3ccc(Oc4ccccc4)cc3)c3cncnc32)C1` [Compound A55, N-((1r,3r)-3-(3-(4-phenoxyphenyl)-1H-pyrazolo[3,4-d]pyrimidin-1-yl)cyclobutyl)acrylamide], the pIC50 at TXK was less than 6.30; against BTK it was 6.30 to 7.00; on JAK3, less than 6.30; against ITK it was less than 6.30.

As for `C=CC(=O)N[C@H]1CC[C@H](n2nc(-c3ccc(Oc4ccccc4)cc3)c3cncnc32)CC1` [Compound A56, N-((1r,4r)-4-(3-(4-phenoxyphenyl)-1H-pyrazolo[3,4-d]pyrimidin-1-yl)cyclohexyl)acrylamide], the negative logarithm of the IC50 (pIC50) at TXK, against BTK, at JAK3 and at ITK was less than 6.30 in each case.

For the compound `CC#CC(=O)N1CCC(Cn2nc(-c3ccc(Oc4ccccc4)cc3)c3cncnc32)CC1` [Compound A57, 1-(4-((3-(4-phenoxyphenyl)-1H-pyrazolo[3,4-d]pyrimidin-1-yl)methyl)piperidin-1-yl)but-2-yn-1-one], the pIC50 at TXK, at BTK, against JAK3 and against ITK was less than 6.30 throughout.

For `CC#CC(=O)N1CC(Cn2nc(-c3ccc(Oc4ccccc4)cc3)c3cncnc32)C1` [Compound A58, 1-(3-((3-(4-phenoxyphenyl)-1H-pyrazolo[3,4-d]pyrimidin-1-yl)methyl)azetidin-1-yl)but-2-yn-1-one], the negative logarithm of the IC50 (pIC50) on TXK, at BTK, against JAK3 and at ITK was less than 6.30 in each case.

For the compound `CC#CC(=O)N1CCC(n2nc(-c3ccc(Oc4ccccc4)cc3)c3cncnc32)CC1` [Compound A59, 1-(4-(3-(4-phenoxyphenyl)-1H-pyrazolo[3,4-d]pyrimidin-1-yl)piperidin-1-yl)but-2-yn-1-one], the pIC50 was less than 6.30 on TXK, 6.30 to 7.00 on BTK, less than 6.30 at JAK3 and less than 6.30 against ITK.

With `CC#CC(=O)N1CC2(CC(n3nc(-c4ccc(Oc5ccccc5)cc4)c4cncnc43)C2)C1` [Compound A60, 1-(6-(3-(4-phenoxyphenyl)-1H-pyrazolo[3,4-d]pyrimidin-1-yl)-2-azaspiro[3.3]heptan-2-yl)but-2-yn-1-one], the negative logarithm of the IC50 (pIC50) is more than 7.00 on TXK, more than 7.00 at BTK, less than 6.30 against JAK3 and less than 6.30 against ITK.

As to `CC#CC(=O)Nc1ccccc1Cn1nc(-c2ccc(Oc3ccccc3)cc2)c2cncnc21` [Compound A61, N-(2-((3-(4-phenoxyphenyl)-1H-pyrazolo[3,4-d]pyrimidin-1-yl)methyl)phenyl)but-2-ynamide], the pIC50 was more than 7.00 at TXK, less than 6.30 at BTK, less than 6.30 against JAK3 and less than 6.30 at ITK.

As for `C=C(F)C(=O)N1CCC[C@@H](n2nc(-c3ccc(Oc4ccccc4)cc3)c3cncnc32)C1` [Compound A62, (R)-2-fluoro-1-(3-(3-(4-phenoxyphenyl)-1H-pyrazolo[3,4-d]pyrimidin-1-yl)piperidin-1-yl)prop-2-en-1-one], the negative logarithm of the IC50 (pIC50) is 6.30 to 7.00 against TXK, 6.30 to 7.00 against BTK, less than 6.30 against JAK3 and less than 6.30 at ITK.

As for `CC#CC(=O)N1CC[C@@H](Cn2nc(-c3ccc(Oc4ccccc4)cc3)c3cncnc32)C1` [Compound A63, (R)-1-(3-((3-(4-phenoxyphenyl)-1H-pyrazolo[3,4-d]pyrimidin-1-yl)methyl)pyrrolidin-1-yl)but-2-yn-1-one], the pIC50 at TXK is less than 6.30; on BTK, 6.30 to 7.00; against JAK3, less than 6.30; against ITK, less than 6.30.

As to `CC#CC(=O)N1CC[C@H](Cn2nc(-c3ccc(Oc4ccccc4)cc3)c3cncnc32)C1` [Compound A64, (S)-1-(3-((3-(4-phenoxyphenyl)-1H-pyrazolo[3,4-d]pyrimidin-1-yl)methyl)pyrrolidin-1-yl)but-2-yn-1-one], the negative logarithm of the IC50 (pIC50) against TXK is 6.30 to 7.00; on BTK, more than 7.00; against JAK3, less than 6.30; on ITK, less than 6.30.

Turning to `CC#CC(=O)N1CCC[C@@H]1Cn1nc(-c2ccc(Oc3ccccc3)cc2)c2cncnc21` [Compound A65, (R)-1-(2-((3-(4-phenoxyphenyl)-1H-pyrazolo[3,4-d]pyrimidin-1-yl)methyl)pyrrolidin-1-yl)but-2-yn-1-one], the pIC50 against TXK was less than 6.30; against BTK, 6.30 to 7.00; on JAK3, less than 6.30; against ITK, less than 6.30.
